The test system of data set [1] is Staphylococcus aureus NCTC Oxford. As to the kind of experiment: microbe, parasite or virus in culture. Format: cell-based. To be noted: for MIC: read-out: MIC S. aureus. The method, then: (§1) Staphylococcus aureus NCTC Oxford and Escherichia coli 0111-NCTC 8007 strains were obtained from the National Collection of Type Cultures, Colindale, UK MIC for each sample was determined in 96 well plates. The above sample in PBS was serially diluted in microtitre wells with media, RPMI-1640 to give concentrations from 2 mg/ml to 0.00375 mg/ml or from 1 mg/ml to 0.00375 mg/ml or from 0.5 mg/ml to 0.00375 mg/ml of RH01 in a final volume of 100 μl. Bacteria were incubated at 37° C. overnight in standard media to give approximately 10^8 bacteria/ml and 10 μl of this was added to each well. The plates were incubated at 37° C. overnight, and bacterial growth determined by formation of a pellet.
(§2) Staphylococcus aureus NCTC Oxford and Escherichia coli 0111-NCTC 8007 strains were obtained from the National Collection of Type Cultures, Colindale, UK. The MIC for each sample was determined in 96 well plates. The RH01 in PBS (see above) was serially diluted in microtitre wells with media (RPMI-1640) to give final concentrations of 2 mg/ml to 0.00375 mg/ml of RH01 in a final volume of 100 μl. Bacteria were incubated at 37° C. overnight in standard media to give approximately 10^8 bacteria/ml and 10 μl of this was added to each well. The plates were incubated at 37° C. overnight, and bacterial growth determined by formation of a pellet.

The next data set deals with T1, HSAff (Homo sapiens, UniProt P02768).
T1 construct: purchased Sigma-Aldrich Company Ltd catalogue number not given; lot 32H9300
Put plainly: Displacement of albumin-bound diazepam from HSAff-diazepam (1:1) monitored by induced CD. Format: binding. The method, then: Diazepam (0.088 mg) was dissolved by sonication for 30 mins in distilled water (0.687 ml). Sodium palmitate (0.872 mg) was dissolved in water pH 8.8 (0.698 ml) by sonicating for 5 mins. […] The CD spectrum of the mixture was then recorded. Sodium palmitate (51 μl) was added to the cell and the mixture was gently mixed by rotating the cell several times. The CD spectrum of the mixture was recorded. This process was repeated twice over, each time the CD spectrum was recorded. The cell was then washed thoroughly with distilled water and ethanol. Distilled water (2.705 ml) was then placed in the 5 cm cell and CD spectrum recorded.
CD spectra were recorded with nitrogen flushed JASCO spectropolarimeter J600 using 4 s time constant, 10 nm/min scan speed and a spectral bandwidth of 2 nm. The induced CD spectra of bound diazepam were obtained by subtracting the spectrum of albumin from that of the HSA-diazepam mixture. The spectra were reported as Δε=εL−εR(M^−1cm^−1).
Diazepam and medium chain fatty acids are known to bind to albumin site II as discussed by T Peters, All about albumin, Academic Press, 1999, p116. The fatty acid molecules are devoid of any CD signal. […] In here, diazepam is used as a marker to show the binding of fatty acids and fatty acid containing molecules to albumin. […] Palmitic acid binds to at least five long chain fatty acid binding sites of which one is closely located to albumin site II as reported by Curry et al. (1998, Nature Structural Biology, 5, 827-835).

The next data set deals with Pronase®. Format: in vitro ADME.
Data set [2] has as its system Escherichia coli 0111-NCTC 8007. Format: cell-based. To be noted: for Minimum Inhibitory Concentration E. coli: NCTC 8007. How it is done:
as §1, §2

A further data set deals with T2, BSAff (Bos taurus, UniProt P02769).
T2 construct: Bovine serum albumin essentially fatty acid free; purchased Sigma-Aldrich Company Ltd catalogue number not given; lot 100K7415
Put plainly: Diazepam binding to fatty acid free bovine serum albumin by induced CD. To be noted: fatty acid 0M/M. How it is done:
BSAff (1.914 mg) was dissolved in distilled water (3.19 ml) to give concentration of 0.6 mg/ml. Diazepam (0.422 mg) was dissolved by sonication for 30 mins in distilled water (3.297 ml) to give a concentration of 0.128 mg/ml. BSAff solution (1.05 ml) was transferred to 2 cm cell and CD spectra was recorded. Diazepam (22 μl) was added to the BSAff in the 2 cm cell and the mixture was gently mixed by rotating the cell several times. The CD spectrum of the mixture was then recorded. The cell was then washed thoroughly with distilled water and ethanol. Distilled water (1.10 ml) was then placed in the 2 cm cell and CD spectrum recorded. CD parameters are as in example 1.

Where [3] appears, read: Staphylococcus aureus, 0.5 h, Table 2, peptide incubation time in mixture 30 min 25° C.
Where [4] appears, read: Staphylococcus aureus, Table 2, peptide incubation time in mixture 2 h 37° C.

The results in this text go back to US20040110678A1, “Novel drug delivery system” (priority 2001, published 2004).

Converted amounts (≈) assume the structure as drawn. Where two headings read alike, the source gives them in different places. Where a SMILES comes first, the peptide text is derived from it. The star is where a group is joined. Palmitoyl = CCCCCCCCCCCCCCCC(=O)*; Myristoyl = CCCCCCCCCCCCCC(=O)*

T1 sequence (P02768 25-609): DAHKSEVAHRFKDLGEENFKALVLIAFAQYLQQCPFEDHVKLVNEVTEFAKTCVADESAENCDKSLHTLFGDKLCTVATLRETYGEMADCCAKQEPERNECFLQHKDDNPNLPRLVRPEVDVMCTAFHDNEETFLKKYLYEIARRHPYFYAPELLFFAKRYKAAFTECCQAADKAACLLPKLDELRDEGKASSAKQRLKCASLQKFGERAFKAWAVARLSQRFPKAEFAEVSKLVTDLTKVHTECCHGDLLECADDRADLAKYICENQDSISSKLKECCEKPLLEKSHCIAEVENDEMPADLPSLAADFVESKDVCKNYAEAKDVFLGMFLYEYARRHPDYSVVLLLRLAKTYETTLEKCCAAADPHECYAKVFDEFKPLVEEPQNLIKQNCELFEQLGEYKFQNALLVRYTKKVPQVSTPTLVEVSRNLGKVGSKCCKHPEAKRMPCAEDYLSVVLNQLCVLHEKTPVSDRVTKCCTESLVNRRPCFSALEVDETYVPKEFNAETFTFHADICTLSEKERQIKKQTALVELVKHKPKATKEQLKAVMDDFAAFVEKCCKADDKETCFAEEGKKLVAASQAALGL
T2 sequence (P02769 25-607): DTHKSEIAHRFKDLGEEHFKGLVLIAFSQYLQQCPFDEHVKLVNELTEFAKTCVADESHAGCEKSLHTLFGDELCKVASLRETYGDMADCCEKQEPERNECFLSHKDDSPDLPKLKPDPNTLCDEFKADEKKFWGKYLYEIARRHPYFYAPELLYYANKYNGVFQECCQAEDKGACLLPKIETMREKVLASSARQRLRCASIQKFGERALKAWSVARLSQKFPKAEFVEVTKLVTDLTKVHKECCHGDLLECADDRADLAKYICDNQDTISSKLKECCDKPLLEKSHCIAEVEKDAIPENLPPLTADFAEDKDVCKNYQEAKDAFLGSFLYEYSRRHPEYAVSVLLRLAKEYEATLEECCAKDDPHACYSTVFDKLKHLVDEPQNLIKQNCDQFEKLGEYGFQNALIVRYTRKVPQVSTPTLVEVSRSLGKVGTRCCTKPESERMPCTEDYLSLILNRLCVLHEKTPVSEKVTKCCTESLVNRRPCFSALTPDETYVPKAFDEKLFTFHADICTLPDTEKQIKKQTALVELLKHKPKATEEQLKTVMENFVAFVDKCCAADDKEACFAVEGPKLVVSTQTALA
Procedure for Pronase®: HSA fatty acid free (2.359 mg) was dissolved in distilled water (3.93 ml) to give concentration 0.60 mg/ml. Pronase® (0.363 mg) was dissolved in distilled water (0.605 ml) to give a concentration 0.60 mg/ml.
HSA fatty acid free solution (0.2 ml) was placed in a 0.05 cm cell and the circular dichroism spectrum (CD) was recorded. The cell was then thoroughly washed with distilled water and ethanol. HSA fatty acid free solution (2.7 ml) was placed in a glass vial. Pronase® solution (27 μl) was added to HSA fatty acid free solution in the glass vial. The mixture was mixed gently and 200 μl was transferred to 0.05 cm cell. The cell was then incubated at 37° C. and CD spectra recorded at various incubation time intervals.
CD spectra were recorded with nitrogen flushed JASCO spectropolarimeters J600 4s time constant, 10 nm/min scan speed and a spectral bandwidth of 2 nm. […]
HSA fatty acid free solution (275 μl) was placed in a glass vial. […] Mixture (200 μl) was transferred into a 0.05 cm cell and CD spectrum was recorded. […] The cell was then incubated at 37° C. and CD spectra recorded at various incubation time intervals.
HSA with fatty acid solution (275 μl) was placed in a glass vial. […] Mixture (200 μl) was transferred into a 0.05 cm cell and CD spectrum was recorded. […] The cell was then incubated at 37° C. and CD spectra recorded at various incubation time intervals. […]

For the compound `CCCCCCCC(=O)O` [CA, caprylic acid, reference compound], the MIC in data set [1] (setting [3]) and in data set [1] (setting [4]) was over 800 µM in each case.
With `CCCCCCCCCCCCCCCC(=O)O` [PA, palmitic acid], the “percentage of diazepam induced CD” value at HSAff (1 molar equivalent added to the mixture HSAff-diazepam (1:1)) amounted to 88.5%; at HSAff (2 molar equivalents added to the mixture HSAff-diazepam (1:1)), 60.0%; on HSAff (3 molar equivalents added to the mixture HSAff-diazepam (1:1)), 18.6%. Further, the MIC in data set [1] (setting [3]) and in data set [1] (setting [4]) was over 800 µM throughout.
`CCCCCCCCCCCCCC(=O)N[C@@H](Cc1ccccc1)C(=O)N[C@@H](C)C(=O)N[C@@H](CCCNC(=N)N)C(=O)N[C@@H](CCCCN)C(=O)NCC(=O)N[C@@H](C)C(=O)N[C@@H](CC(C)C)C(=O)N[C@@H](CCCNC(=N)N)C(=O)N[C@@H](CCC(N)=O)C(=O)O` [RH01] (Myristoyl-FARKGALRQ-OH): the “displacement of diazepam (DZ) from HSAff-DZ (1:1)” value on HSAff (added at different molar ratios, data not shown) is “decreased induced CD”. The “stability towards Pronase degradation, comparison in words” value with Pronase® is recorded as “stabilises fat free DBax HSA like HSAff”. In addition, the “Minimum Inhibitory Concentration E. coli” value in data set [2] is 48 µM. Further, the “potency with HSAff compared to the lipopeptide alone or with HSAfa” value in data set [2] (from Table 1) and in data set [1] (from Table 1) was “twice as potent” throughout. The MIC in data set [1] (NCTC Oxford, 2 h) came out at 24 µM (≈ 30.2 µg/mL); in data set [1] (NCTC Oxford), 12 µM (≈ 15.1 µg/mL).
Take `CCCCCCCCCCCCCCCC(=O)NCCCC[C@H](NC(=O)[C@H](CC(N)=O)NC(=O)[C@H](CCCCN)NC(=O)[C@H](CCC(N)=O)NC(=O)[C@H](CCCNC(=N)N)NC(=O)[C@H](CC(C)C)NC(=O)[C@H](C)NC(=O)CNC(=O)[C@H](CCCCN)NC(=O)[C@H](CCCNC(=N)N)NC(=O)[C@H](C)NC(=O)[C@H](Cc1ccccc1)NC(=O)[C@H](CCCCN)NC(=O)CCCCCCCCCCCCCCC)C(N)=O` [RH02] (Palmitoyl-KFARKGALRQKNK(Palmitoyl)-NH2): the “Minimum Inhibitory Concentration E. coli” value in data set [2] is 62 µM. In data set [1] (NCTC Oxford), the “Minimum Inhibitory Concentration S. aureus” value was found to be 3.7 µM.
As for `CCCCCCCCCCCCCCCC(=O)NCCCC[C@H](NC(=O)[C@H](CC(N)=O)NC(=O)[C@H](CCCCN)NC(=O)[C@H](CCCCNC(=O)CCCCCCCCCCCCCCC)NC(=O)[C@H](CCCNC(=N)N)NC(=O)[C@H](CC(C)C)NC(=O)[C@H](C)NC(=O)CNC(=O)[C@H](CCCCN)NC(=O)[C@H](CCCNC(=N)N)NC(=O)[C@H](C)NC(=O)[C@H](Cc1ccccc1)NC(=O)[C@H](CCCCN)NC(=O)CCCCCCCCCCCCCCC)C(N)=O` [RH03] (Palmitoyl-KFARKGALRK(Palmitoyl)KNK(Palmitoyl)-NH2), the “Minimum Inhibitory Concentration E. coli” value in data set [2] came out at 441 µM. The “Minimum Inhibitory Concentration S. aureus” value in data set [1] (NCTC Oxford) amounted to 55 µM.
Consider `CC(C)C[C@H](NC(=O)[C@H](C)NC(=O)CNC(=O)[C@H](CCCCN)NC(=O)[C@H](CCCNC(=N)N)NC(=O)[C@H](CCCCN)NC(=O)[C@H](Cc1ccccc1)NC(=O)[C@@H](N)CCCCN)C(=O)N[C@@H](CCCNC(=N)N)C(=O)N[C@@H](CCC(N)=O)C(=O)N[C@@H](CCCCN)C(=O)N[C@@H](CC(N)=O)C(=O)N[C@@H](CCCCN)C(N)=O` [RH04], for which, in data set [2], the “Minimum Inhibitory Concentration E. coli” value is 620 µM. Moreover, the “Minimum Inhibitory Concentration S. aureus” value in data set [1] (NCTC Oxford) came out at 145 µM.
Consider “BSAff: bovine serum albumin essentially fatty acid free and essentially globulin-free”, for which the “induced CD of diazepam bound to BSAff, in words” value with BSAff is “characteristic induced CD”.
